# Results published in patent publication US6472385B1, “Compositions and methods to enhance cancer chemotherapy in p53 defective tumors” (priority 1999, dated 2002).
# Assays:
# [1] = system: human prostate carcinoma cells; details: cited from earlier work
# [2] = system: DNA damage-induced cell cycle arrest; assay: Cell cycle arrest abrogation in the presence of human plasma / plasma proteins; format: cell-based; details: human plasma / human plasma proteins added
# Experimental: However, in K252a the hexose. moiety is replaced with a pentose moiety. […] It is believed that the pentose ring of this structure prevents binding of this compound to human plasma proteins.
# Experiments of cell cycle analysis were conducted in accordance with procedures described by Demarcq et al. Cell Growth and Differ. 1994 5:983-993; Bunch, R. T. and Eastman, A. Clinical Cancer Research 1996 2:791-7; and Bunch, R. T. and Eastman, A. Cell Growth and Differ. 1997 8:779-788.
# [3] = system: DNA damage-induced cell cycle arrest; assay: Cell cycle analysis: abrogation of DNA damage-induced cell cycle arrest; format: cell-based; details: for G2 arrest caused by the compound itself: compound alone / at concentrations capable of abrogating arrest
# Experimental: Experiments of cell cycle analysis were conducted in accordance with procedures described by […] et al. Cell Growth and Differ. 1994 5:983-993; Bunch, R. T. and Eastman, A. […] T. and Eastman, A. Cell Growth and Differ. 1997 8:779-788.
# [4] = system: G2 checkpoint activated by DNA damage; details: literature; UCN-01: noncytotoxic doses, cisplatin; cited from earlier work
# human cells = details: cited from earlier work
# [5] = system: Chinese hamster ovary cells; details: Chinese hamster ovary cells incubated with cisplatin; cited from earlier work
# [6] = system: p53 defective human breast cancer cells lines, MDA-MD-231 and T47D; assay: Selectivity of arrest abrogation for p53 defective cell lines; format: cell-based
# Experimental: The breast cancer cell lines were obtained from the American Type Culture Collection (Rockville, Md.). The cells were maintained in Dulbecco's modified Eagle's Medium supplemented with 10% fetal bovine serum, penicillin (100 units/ml), streptomycin (100 μg/ml) and fungizone (0.25 μg/ml).
structure (smiles),measurement,setting,value
COC(=O)[C@@]1(O)CC2O[C@]1(C)n1c3ccccc3c3c4c(c5c6ccccc6n2c5c31)C(=O)NC4 [K252a],inhibition of growth of human prostate carcinoma cells,[1],inhibit the growth
same,activity (abrogation of cell cycle arrest) in the presence of human plasma,[2],not inhibited
same,abrogation of cell cycle arrest in the G2 phase,[3]; G2 phase,does not abrogate cell cycle arrest in the G2 phase
same,abrogation of cell cycle arrest in the S phase,[3]; S phase,only abrogates cell cycle arrest in the S phase
same,G2 arrest caused by the compound itself,[3],causes G2 arrest
CN[C@@H]1C[C@H]2O[C@@](C)([C@@H]1OC)n1c3ccccc3c3c4c(c5c6ccccc6n2c5c31)C(=O)NC4 [staurosporine],abrogation of G2 checkpoint / G2 arrest after DNA damage,[4],abrogate the G2 checkpoint
C[C@@](O)(/C=C/[C@H]1CC=CC(=O)O1)[C@@H](C[C@@H](O)\C=C/C=C\C=C\CO)OP(=O)(O)O [fostriecin],abrogation of G2 checkpoint / G2 arrest after DNA damage,[4],abrogate the G2 checkpoint
C=C1[C@@H](O)[C@@H]2O[C@]3(CC[C@H](/C=C/[C@@H](C)[C@@H]4CC(C)=C[C@@]5(O[C@H](C[C@@](C)(O)C(=O)O)CC[C@H]5O)O4)O3)CC[C@H]2O[C@@H]1[C@@H](O)C[C@H](C)[C@H]1O[C@@]2(CCCCO2)CC[C@H]1C [okadaic acid],abrogation of G2 checkpoint / G2 arrest after DNA damage,[4],abrogate the G2 checkpoint
CC(=O)CCCCn1c(=O)c2c(ncn2C)n(C)c1=O [pentoxifylline],abrogation of G2 checkpoint / G2 arrest after DNA damage,[4],abrogate the G2 checkpoint
"CN[C@@H]1C[C@H]2O[C@@](C)([C@@H]1OC)n1c3ccccc3c3c4c(c5c6ccccc6n2c5c31)C(=O)N[C@H]4O [UCN-01, 7-hydroxystaurosporine]",abrogation of S phase arrest,human cells,Abrogation of S phase arrest has also been observed
same,abrogation of S-phase arrest,[5],abrogates this S-phase arrest
same,abrogation of G2 checkpoint / G2 arrest after DNA damage,[4],abrogate the G2 arrest
COC[C@@H]([C@H](O)[C@H](O)C(=O)NCC[C@H](C)c1nc(/C=C/C[C@@H]2O[C@]3(C[C@@H](O)[C@@H]2C)O[C@H]([C@H](C[C@H](O)[C@H](C)[C@H](O)[C@H](C)/C=C(C)/C(C)=C/C=C/C(C)=C\C#N)OC)[C@H](OP(=O)(O)O)C3(C)C)co1)N(C)C [calyculin A],abrogation of G2 checkpoint / G2 arrest after DNA damage,[4],abrogate the G2 checkpoint
COC(=O)[C@@]1(O)CC2O[C@]1(C)n1c3ccccc3c3c4c(c5c6ccccc6n2c5c31)C(=O)NC4=O [ICP1],activity (abrogation of cell cycle arrest) in the presence of human plasma,[2],maintain its ability to abrogate cell cycle arrest
same,G2 arrest caused by the compound itself,[3],does not cause G2 arrest
same,abrogation of cell cycle arrest,[3]; non-toxic concentrations,abrogates cell cycle arrest at non-toxic concentrations
same,selectivity of abrogation of cell arrest for p53 defective cell lines,[6],selective for p53 defective cell lines
